Experimental data as given in patent US20070134185A1, “Use of dithiols in a hair-perming composition” (priority 2003, published 2007).

Experiments:
[1] = cited from earlier work
[2] = Permanent waving of hair locks with reducing lotion; settings: reducing lotion 20.83 g Compound A1 per 100 g, pH = 7, 15 minutes on curled hair, fixing with hydrogen peroxide at 8 volumes pH=3
Procedure: A reducing lotion is prepared:
The above lotion is applied to locks of grey hair which is 90% white. Curls are produced using curlers. The lotion is allowed to act on the curled hair for 15 minutes. The hair is rinsed with water. A conventional fixing composition based on hydrogen peroxide (hydrogen peroxide at 8 volumes, pH=3), is applied. Another rinsing is carried out. The curlers are removed.

[3] = Oxidation dyeing of permanently waved hair; settings: compared with identical permanent waving with thioglycolic acid instead of A1, at equivalent curliness

Row | SMILES | solubility in water [1] | curliness [2] | colour after 7.44 CRESCENDO oxidation dye on permanently waved hair [3]
1 | O=S(=O)(CCS)CCS [BMS, bis(2-mercaptoethyl)sulphone] | very sparingly soluble in water | – | –
2 | CN(C(=O)CS)N(C)C(=O)CS [Compound A1] | – | Good curliness | closer to that obtained on non-permanently waved hair
